# Measurements as given in EP0035856A2, “Pharmaceutical and dietary compositions” (EFAMOL LIMITED, priority 1980, dated 1981).
# Like-named read-outs stand apart in the source and are kept apart here.
# How the values were obtained:
# [1] = tested on: rat mesenteric vascular bed; conditions: cited from earlier work; for inhibitory action on noradrenaline responses with intact PG synthesis versus PG synthesis blocked: PG synthesis blocked by indomethacin or by aspirin
# Kidney slices (rat) = assay: Conversion of 14C-labelled DGLA and AA to PGEs in rat kidney slices; assay type: cell-based; conditions: 5 μg/ml drug, percentage of control incubation with drug vehicle alone, 10% variation is a real change
# Protocol: The conversions of the precursors to the respective PGEs and TXBs in platelets and to the PGEs in kidney slices were investigated. The results are shown in the following tables and are expressed as percentages of the results obtained during control incubations when drug vehicle alone was added. A 10% variation is a reliable indication of real change.
# The detailed technique with platelets is given below by way of example. That with kidney slices was essentially similar.
# (1-^14C) arachidonic acid and (1-^14C) dihomo-y-linolenic acid was used, diluted with hexane to specific activities of about 2 or 5 µCi/µmol. One day expired (2 days old) human platelets were obtained and used within 48 hours of expiration. One unit was centrifuged at lOOOg for 15 minutes and the supernatant drawn off. The platelet pellet was resuspended in Tris-NaCl-EDTA buffer, made up of 0.15 M NaCl, 0.15 M Tris HC1 at pH 7.4 and 0.077 M NaEDTA (90:8:2 v/v/v). The platelets were recentrifuged, the supernatant removed and the pellet resuspended in Krebs-Henseleit buffer (without calcium) at oH 7.4. The washed platelet suspension contained about 1-2% red blood cells. All glassware used in the preparation of the platelets was siliconized.
# Four equal sized 1 ml aliquots of the platelet suspension, containing 10^9 platelets/ml were incubated with e.g. 0.5 µCi 14 C-DGLA for five minutes. At the beginning of the incubation the drug under test was added to the suspensions. The reaction was stopped after five minutes by addition of 1/10 volume of 10% formic acid. The suspension was then extracted three times with ethyl acetate and the fractions pooled and dried under vacuum. The extract was then taken up with 5 ml chloroform/methanol (2/1, v/v). Recovery of radioactive material in the extract was checked by taking 50pl of the chloroform/methanol and counting by liquid scintillation. Recovery was in the range 80-95% in most experiments.
# The chloroform/methanol extract was then reduced in volume to 1 ml under dry prepurified nitrogen. Thin layer chromatography was carried out on […] precoated, prescored silica gel G Uniplates (Analtech). Plates were activated by heating to 100°C for 1 hour immediately prior to use. The solvent system was chloroform:methanol: acetic acid:water (90:8:1:0.8). Reference compounds (PG's El and Fla, and thromboxane Bl) were run at the same time and visualized by phosphomolybdic acid spray followed by brief heating. The bands on the plates corresponding to the reference PGE 1,PFG la and TXB 1 were scraped off and eluted with 20 ml acetone. Each elution was then evaporated to dryness and counted by liquid scintillation (Beckman 100 LS counter). […]
# Platelets (human) = assay: Conversion of 14C-labelled DGLA and AA to PGEs and TXBs in human platelets; assay type: cell-based; conditions: Platelet, 5 μg/ml drug, percentage of control incubation with drug vehicle alone
# Protocol: The method is given in detail later herein but briefly human platelets are incubated with radioactive DGLA or arachidonic acid. The PGs produced during incubation are extracted by conventional means and separated by thin layer chromatography, and the amount of radioactivity appearing in each PG or related substance is counted. PGE 1, PGF la and thromboxane Bl from DGLA, and PGE 2, PFG 2a and thromboxane B2 from AA are estimated.
# The conversions of the precursors to the respective PGEs and TXBs in platelets and to the PGEs in kidney slices were investigated. […] A 10% variation is a reliable indication of real change.
# The chloroform/methanol extract was then reduced in volume to 1 ml under dry prepurified nitrogen. Thin layer chromatography was carried out on 500 µg precoated, prescored silica gel G Uniplates (Analtech). Plates were activated by heating to 100°C for 1 hour immediately prior to use. The solvent system was chloroform:methanol: acetic acid:water (90:8:1:0.8). Reference compounds (PG's El and Fla, and thromboxane Bl) were run at the same time and visualized by phosphomolybdic acid spray followed by brief heating. […] Each elution was then evaporated to dryness and counted by liquid scintillation (Beckman 100 LS counter). […]
# [2] = read-out: PGE 1 formed from precursor acid DGLA
# [3] = read-out: PGE 2 formed from precursor acid AA
Structure (SMILES),effect on responses to noradrenaline [1],inhibitory action on noradrenaline responses with intact PG synthesis versus PG synthesis blocked [1],other results
"CCCCC/C=C\C/C=C\C/C=C\C/C=C\CCCC(=O)O [AA, arachidonic acid]",increase noradrenaline responses,,
"CCCCC/C=C\C/C=C\C/C=C\CCCCCCC(=O)O [DGLA, dihomo-y-linolenic acid]",inhibit responses to noradrenaline,,
CCCCC[C@H](O)/C=C/[C@H]1[C@H](O)CC(=O)[C@@H]1CCCCCCC(=O)O [PGE 1],inhibit responses to noradrenaline,,
CCN(CC)CCCC(C)Nc1ccnc2cc(Cl)ccc12 (centres unmarked) [chloroquine],inhibits responses to noradrenaline,more potent when endogenous prostaglandin synthesis is intact,activity at 5 µg/mL (Kidney slices (rat); [2]): 129%; activity at 5 µg/mL (Kidney slices (rat); [3]): 101%; activity at 5 µg/mL (Platelets (human); [2]): 132%; activity at 5 µg/mL (Platelets (human); [3]): 98%; activity at 5 µg/mL (Platelets (human); read-out: TXB 1 formed from precursor acid DGLA): 128%; activity at 5 µg/mL (Platelets (human); read-out: TXB 2 formed from precursor acid AA): 97%
CCN(CC)CCOC(=O)c1ccc(N)cc1 [procaine],,share this effect of chloroquine,
CCN(CC)CCCC(C)Nc1c2ccc(Cl)cc2nc2ccc(OC)cc12 (centres unmarked) [quinacrine],,share this effect of chloroquine,
C=C[C@H]1C[N@@]2CC[C@H]1C[C@@H]2[C@@H](O)c1ccnc2ccc(OC)cc12 [quinidine],,share this effect of chloroquine,
C=C[C@H]1C[N@@]2CC[C@H]1C[C@H]2[C@H](O)c1ccnc2ccc(OC)cc12 [quinine],,share this effect of chloroquine,
CC(=O)S[C@@H]1CC2=CC(=O)CC[C@]2(C)[C@H]2CC[C@@]3(C)[C@@H](CC[C@@]34CCC(=O)O4)[C@H]12 [spironolactone],,,activity at 5 µg/mL (Kidney slices (rat); [2]): 143%; activity at 5 µg/mL (Kidney slices (rat); [3]): 67%
